{"source": "paper PMC3466204", "about": "(PLoS ONE, 2012)", "key": {"B. cereus DPC 6088": {"system": "B. cereus DPC 6088", "assay": "Broth MIC, Gram positive", "type": "cell-based, Bacillus cereus", "settings": "broth microtitre, BSA pre-treated plates, 10^5 cfu ml^−1, 2-fold dilutions from 10 µM, 16 h 37°C, purified peptide, mean of triplicate assays", "protocol": "(§1) Minimum inhibitory concentration determinations for Gram positive organisms were carried out in triplicate in microtitre plates (Sarstedt). 96 well microtitre plates were pre-treated with bovine serum albumin (BSA) prior to addition of the peptides. Briefly, to each well of the microtitre plate 200 µL of phosphate buffered saline (PBS) containing 1% (w/v) bovine serum albumin (PBS/BSA) was added and incubated at 37°C for 30 min. The wells were washed with 200 µL PBS and allowed to dry. Target strains were grown overnight in the appropriate conditions and medium, subcultured into fresh broth and allowed to grow to an OD600 of ∼0.5, diluted to a final concentration of 10^5 cfu ml^−1 in a volume of 0.2 ml. Wild type nisin and nisin mutant peptides were adjusted to a 10 µM (S. mitis, B. cereus), 7.5 µM (L. monocytogenes), 5 µM (hVISA) 2.5 µM (MRSA, E. durans), or 500 nM (L. lactis strains) starting concentration and 2-fold serial dilutions of each peptide were added to the target strain."}, "B. cereus DPC 6089": {"system": "B. cereus DPC 6089", "assay": "Broth MIC, Gram positive", "type": "cell-based, Bacillus cereus", "settings": "broth microtitre, BSA pre-treated plates, 10^5 cfu ml^−1, 2-fold dilutions from 10 µM, 16 h 37°C, purified peptide, mean of triplicate assays", "protocol": "as §1"}, "C. sakazakii DPC 6440 [1]": {"system": "C. sakazakii DPC 6440", "assay": "Agarose gel diffusion assay, purified peptide", "type": "cell-based, Cronobacter sakazakii", "settings": "purified peptide 60 µM", "protocol": "(§2) Agarose-based deferred antagonism assays were carried out as follows: GM17/LB (0.03%) underlay was prepared with 10 mM sodium phosphate buffer (SPB) at pH 7.4 to which was added agarose (1% w/v agarose), autoclaved and cooled to 50°C. Bacteria grown to mid-logarithmic phase were harvested by centrifugation and washed with 10 mM SPB at pH 7.4. Bacteria were then added to 15 mls cooled underlay medium to reach a concentration of 2×10^7 colony-forming units (CFU)/mL. The inoculated medium was rapidly transferred into sterile Petri plates, allowed to solidify and dried. Wells (4.6 mm in diameter) were then made in the seeded plates. 10 µl volumes of cell-free supernatant from overnight nisin derivative producing cultures or resuspended purified peptides were then added to the wells and the plates incubated at 30°C (L. lactis) or 37°C (Gram positive strains) or RT (Gram negative strains) for 3 hours. Polymyxin B (Sigma Aldrich) was used at a concentration of 20 µg/ml. The plates were then overlaid with 15 mls of autoclaved double strength GM17 (L. lactis) or LB (Gram negatives) agarose (1% w/v agarose) overlay medium precooled to 50°C. The plates were then incubated overnight at the relevant temperature."}, "E. coli 0157-H7 [2]": {"system": "E. coli 0157-H7", "assay": "Agarose gel diffusion assay, purified peptide", "type": "cell-based", "settings": "purified peptide 60 µM", "protocol": "as §2"}, "[3]": {"system": "Salmonella enterica serovar Typhimurium UK1", "assay": "Agarose gel diffusion assay, purified peptide", "type": "cell-based", "settings": "purified peptide 60 µM", "protocol": "as §2"}, "C. sakazakii DPC 6440 [4]": {"system": "C. sakazakii DPC 6440", "assay": "Broth MIC, Gram negative", "type": "cell-based, Cronobacter sakazakii", "settings": "cells washed in 10 mM SPB pH 7.4, 2×10^5 CFU/mL, 2 h RT with peptide, then double strength LB, RT overnight, mean of triplicate assays", "protocol": "(§3) Minimum inhibitory concentration determinations for Gram negative strains were carried out in triplicate in 96 well microtitre plates. Briefly, bacteria (E. coli, C. sakazakii and Salmonella) grown to mid-logarithmic phase were harvested by centrifugation, washed with 10 mM SPB at pH 7.4, and diluted to 2×10^5 colony-forming units (CFU)/mL in SPB. Nisin and nisin derivative peptides were resuspended in sterile HPLC water and 50 µL aliquots were added to wells containing 50 µL of 2×10^5 CFU of bacteria. Plates were incubated at RT for two hours with agitation. Double strength Luria–Bertani (LB) broth (100 µL) was added and the plates were incubated at RT overnight, the MIC was taken as the lowest concentration at which growth was inhibited."}, "E. coli 0157-H7 [5]": {"system": "E. coli 0157-H7", "assay": "Broth MIC, Gram negative", "type": "cell-based", "settings": "cells washed in 10 mM SPB pH 7.4, 2×10^5 CFU/mL, 2 h RT with peptide, then double strength LB, RT overnight, mean of triplicate assays", "protocol": "as §3"}, "[6]": {"system": "Salmonella enterica serovar Typhimurium UK1", "assay": "Broth MIC, Gram negative", "type": "cell-based", "settings": "cells washed in 10 mM SPB pH 7.4, 2×10^5 CFU/mL, 2 h RT with peptide, then double strength LB, RT overnight, mean of triplicate assays", "protocol": "as §3"}, "C. sakazakii DPC 6440 [7]": {"system": "C. sakazakii DPC 6440", "assay": "Kill curve analysis", "type": "cell-based, Cronobacter sakazakii", "settings": "33 mg/L purified peptide, 2×10^5 cfu ml^−1, 37°C for 1 hour", "protocol": "(§4) Using purified peptide in each case, 10 mM sodium phosphate buffer washed C. sakazakii, E. coli and Salmonella strains were diluted to a final concentration of 2×10^5 cfu ml^−1 and were exposed to nisin A, S29G and S29A at a concentration of 33 mg/L. Following incubation at 37°C for 1 hour, bacterial growth was monitored through plate counts."}, "E. coli": {"system": "E. coli", "assay": "Kill curve analysis", "type": "cell-based", "settings": "33 mg/L purified peptide, 2×10^5 cfu ml^−1, 37°C for 1 hour", "protocol": "as §4"}}, "note": "Values joined by “and” are separate entries in the source; they are usually repeats but may differ in a detail not shown here. Equal entries are not always repeated. Ends that are not written are not given here."}
{"substance": "S29G: bioengineered nisin A derivative with a serine to glycine change at position 29 (ITSISLCTPGCKTGALMGCNMKTATCHCGIHVSK; thioether (positions not given here); not fully specified (residues 2, 5, 33, bridges); UniProt P13068 24-57, looked up, variant S29G)", "values": [{"measurement": "MIC", "setting": "B. cereus DPC 6088", "result": "4.19 mg/L and 1.25 µM"}, {"measurement": "MIC", "setting": "B. cereus DPC 6089", "result": "4.19 mg/L and 1.25 µM"}, {"measurement": "Zone of inhibition, agarose gel diffusion", "setting": "C. sakazakii DPC 6440 [1]; C. sakazakii DPC 6440, mean of triplicate assays", "result": "10.79±0.16", "unit": "mm"}, {"measurement": "Zone as % wt", "setting": "C. sakazakii DPC 6440 [1]; C. sakazakii DPC 6440, relative to nisin A", "result": 110, "unit": "% wt"}, {"measurement": "Zone of inhibition, agarose gel diffusion", "setting": "E. coli 0157-H7 [2]; E. coli 0157-H7, mean of triplicate assays", "result": "11.10±0.05", "unit": "mm"}, {"measurement": "Zone as % wt", "setting": "E. coli 0157-H7 [2]; E. coli 0157-H7, relative to nisin A", "result": 113, "unit": "% wt"}, {"measurement": "Zone of inhibition, agarose gel diffusion", "setting": "[3]; Salmonella Typhimurium UK1, mean of triplicate assays", "result": "10.94±0.24", "unit": "mm"}, {"measurement": "Zone as % wt", "setting": "[3]; Salmonella Typhimurium UK1, relative to nisin A", "result": 111, "unit": "% wt"}, {"measurement": "MIC", "setting": "C. sakazakii DPC 6440 [4]", "result": "6.28 mg/L and 1.875 µM"}, {"measurement": "MIC", "setting": "E. coli 0157-H7 [5]", "result": "25.14 mg/L and 7.5 µM"}, {"measurement": "MIC", "setting": "[6]", "result": "50.28 mg/L and 15 µM"}, {"measurement": "Killing compared with nisin A (plate counts)", "setting": "C. sakazakii DPC 6440 [7]", "result": "greater activity than wildtype nisin A"}, {"measurement": "Killing compared with nisin A (plate counts)", "setting": "E. coli", "result": "greater activity than wildtype nisin A"}]}
